Columns and labels:
[1] = target: T1, bovine mitochondria (ANT) (Bos taurus, UniProt P02722); test: 125I-compound 24 competition binding (Tube Assay), beef heart mitochondria
T1 construct: from tissue; host or cells: bovine heart mitochondria
T1 sequence (P02722 2-298 limits assumed): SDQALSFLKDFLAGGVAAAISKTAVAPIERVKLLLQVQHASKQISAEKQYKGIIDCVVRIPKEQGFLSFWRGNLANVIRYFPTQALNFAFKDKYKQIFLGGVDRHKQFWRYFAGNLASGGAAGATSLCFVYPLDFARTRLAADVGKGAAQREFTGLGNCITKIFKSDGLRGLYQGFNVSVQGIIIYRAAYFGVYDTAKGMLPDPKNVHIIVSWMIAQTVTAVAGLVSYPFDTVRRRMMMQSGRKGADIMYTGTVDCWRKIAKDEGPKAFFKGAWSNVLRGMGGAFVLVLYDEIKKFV
Description: Bovine mitochondria were prepared as follows: Essentially all of the fat and cholesterol […] was removed from two bovine hearts which were then cut into 1-inch cubes. The cubes were ground in a meat grinder using the fine setting. Three hundred (300) […] portions of the ground heart were weighed out and, to each was added 400 ml of Isolation Buffer (IB; 250 mM sucrose, 1 mM sodium succinate, 0.2 mM K^+EDTA, 10 mM Tris-base, pH 7.8). (All buffers were filter sterilized, and column buffers were degassed, and, unless otherwise noted, all steps were carried out at 0 to 4° C. on ice or in pre-cooled rotors and centrifuges.) The preparations were mixed in a blender two times for 15 seconds on high setting and, in between and after blends, the pH was adjusted to 7.8 with 2M Tris-base. The homogenate was centrifuged for 20 minutes at 1,200×g, and the supernatant was poured through two layers of cheese cloth and adjusted to pH 7.8 with 2M Tris-base. The supernatant was then centrifuged for 30 minutes at […]. The supernatant was decanted, and the buff-colored outer pellet was dislodged with about 10 ml of IB and discarded. The brown inner pellet (heavy mitochondria) was resuspended in IB (about 10 ml per pellet). The pellets were homogenized in a glass-teflon homogenizer (2 passes at high drill speed). Samples were combined and centrifuged for 30 minutes at 11,000×g. The supernatant was decanted, and the pellets were resuspended in 60 ml of IB per 900 gm of ground heart. This centrifugation step was repeated and the pellets were finally resuspended in IB (60 ml per 900 gm of ground heart). One kilogram of beef heart typically yields about one (1) gram of mitochondria
The mitochondrial preparations were divided into aliquots (typically, 50μl for T. ni mitochondria or 20 μl for bovine mitochondria) and then either used directly in assays or flash frozen and stored at −80° C. The total protein content in the mitochondrial preparations was determined using the enhanced protocol (30 minutes at 60° C.; see http://www.ruf.rice.edu/˜bioslabs/methods/protein/BCA.html) of the bicinchoninic acid (BCA) assay (available in kit form from Pierce, Rockford, Ill.).
In the “Tube Assay,” mitochondria (from about 1 to 10 μg of total protein) were resuspended in 100 μl of Tris-KCl buffer with 0.1% BSA, pH 7.4. ^125I-labeled compound 24 (Example 11) was added to a final concentration of 0.5 nM. When used, competitors were added at these concentration ranges: unlabeled atractyloside or compound 24 final concentration from 5 nM to 10 μM; unlabeled ADP (a lower affinity competitor) was added at a final concentration of 500 nM to 1 mM.
The reaction mixes were incubated on ice for 60 minutes and then pelleted by centrifugation (approximately 16,000×g) for 11 minutes at 4° C.
Unbound ^125I-compound 24 was removed by aspiration. The pellets were contact-washed with Tris-KCl buffer, pH 7.4, and recentrifuged. The resultant pellets were aspirated and the radioactivity (dpm) in each was determined by gamma counting.

[2] = target: T2, GST-huANT3 recombinantly produced in E. coli (membranes) (Homo sapiens, UniProt P12236); test: Saturation binding of [32P]ATP to E. coli membranes, huANT3-producing cells; details: atractyloside 10μM added to the assay
T2 construct: Gly-Ser-Pro-Gly-Ile-Leu-Met, where “Met” indicates the amino acid encoded by the translation initiation codon of huANT3; made in house; host or cells: E. coli (crude membrane preparation)
T2 sequence (P12236 1-298): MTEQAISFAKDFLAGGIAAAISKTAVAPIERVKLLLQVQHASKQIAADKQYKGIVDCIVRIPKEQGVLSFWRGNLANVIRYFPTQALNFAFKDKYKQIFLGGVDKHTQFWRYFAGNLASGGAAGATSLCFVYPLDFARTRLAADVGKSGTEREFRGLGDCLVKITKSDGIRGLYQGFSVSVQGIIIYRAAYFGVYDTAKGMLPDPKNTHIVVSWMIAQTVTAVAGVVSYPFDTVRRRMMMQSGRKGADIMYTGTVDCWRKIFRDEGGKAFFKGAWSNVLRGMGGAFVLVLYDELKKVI
Description: Following arabinose induction, transformed or sham transformed (vector only) E coli were collected by centrifugation at 2000 g for 10 min. The bacterial pellets were resuspended in MSB, to which lysozyme (100 μg/ml) was added. After 20 min at room temperature, the lysates were subjected to one freeze-thaw cycle followed by sonication as described above. The resultant membrane preparation was used for binding assays.
[…] The membranes with bound ATP were sedimented by centrifugation at 5000 g for 5 min, and washed once with binding buffer. Membrane pellets were then mixed with 5 ml scintillation cocktail and counted.

Sf9/huANT3 mitochondria = target: T3, Sf9/huANT3 mitochondria (Homo sapiens, UniProt P12236); test: Homologous competition of [32P]ATP binding to Sf9/huANT3 mitochondria; details: FIG. 8
T3 construct: expressed in transfected cells; host or cells: Spodoptera frugiperda Sf9 cells infected with recombinant baculovirus; isolated mitochondria
T3 sequence (P12236 1-298): T2 sequence (P12236 1-298)
Description: To estimate maximal binding and the extent of overexpression of the huANT3, 25 μg of membrane protein was incubated with varying amounts of [^32P]ATP (1-500 μM) in binding buffer (120 mM KCl, 10 mM Tris, 1 mM EDTA, pH 7.4) for 2 hr at room temperature. The membranes with bound ATP were sedimented by centrifugation at 5000 g for 5 min, and washed once with binding buffer. Membrane pellets were then mixed with 5 ml scintillation cocktail and counted.
Sf9 cells expressing huANT3 were grown in spinner flasks. The cells were harvested by centrifugation at 2,000 g for 5 min. The cell pellet was resuspended in MSB and subjected to 3 freeze-thaw cycles. Cell membranes and debris were removed by centrifugation at 600 g for 5 min; mitochondria were collected by centrifuging the supernatant at 20,000 g for 15 min. The mitochondrial pellets were suspended in MSB, and used for binding assays as described above. Homologous competition of [^32P]ATP binding was performed using 25 μg mitochondrial protein per assay.

SMILES: C=C1[C@@H]2CCC3[C@@](CC[C@@H]4[C@H](C(=O)O)C[C@@H](O[C@@H]5O[C@H](CO)[C@@H](OS(=O)(=O)[O-])[C@H](OS(=O)(=O)[O-])[C@H]5OC(=O)CC(C)C)C[C@@]34C)(C2)[C@@H]1O.[K+].[K+] (some centres unmarked) [ATR, atractyloside]
- IC50 ([1]; 0.5 nM 125I-compound 24, FIG. 17, read-out: IC50, competitive inhibition of 125I-compound 24 binding): ~44 nM
- affinity relative to the low affinity ANT ligand ADP ([1]; 1 μg protein/tube, FIG. 13): about 1,000 fold
- competitive inhibition of 125I-compound 24 binding (in words) ([1]; FIGS. 11, 13, 16): slightly higher affinity than compound 24
- effect on ATP binding [2]: abolished
- displacement of ATP binding (Sf9/huANT3 mitochondria): displaced by low concentrations of atractyloside

Reference: patent US6906175B2, “Production of adenine nucleotide translocator (ANT), novel ANT ligands and screening assays therefor” (priority 1998, dated 2005)
